Test results taken from patent US7754705B2, “Cationic steroid antimicrobial compositions and methods of use” (priority 2006, dated 2010).
Read-outs that look alike come from different tables or passages of the source.

Tests used:
[1] = test system: vaccinia virus; test: microbe, parasite or virus in culture; details: Orthopoxvirus vaccinia, BSC-1, in Chlorocebus sabaeus, 24 h
[2] = test system: vaccinia virus
[3] = test system: vaccinia lipid envelope; format: binding, vaccinia virus; keratinocytes
[4] = test system: vaccinia virus; format: cell-based, vaccinia virus; human keratinocytes (HaCaT)

Row | SMILES | viability at 5 µM [1] [%] | viability at 10 µM [1] [%] | viability at 25 µM [1] [%] | viability at 50 µM [1] [%] | viability at 100 µM [1] [%] | effectiveness in killing vaccinia virus (in words) [2] | % Viability ([2]; 5 μM) [%] | % Viability ([2]; 10 μM) [%] | % Viability ([2]; 25 μM) [%] | % Viability ([2]; 50 μM) [%] | % Viability ([2]; 100 μM) [%] | incorporation into vaccinia lipid envelope versus keratinocyte membrane [3] | % Viability ([2]; 1 μM) [%] | activity against vaccinia virus (vaccinia gene expression) [4] | concentration at which significant viral killing was observed / compound was effective [2] [µM]
1 | CC(O)[C@H]1CC[C@H]2[C@@H]3[C@H](OCCCN)C[C@@H]4C[C@H](OCCCN)CC[C@]4(C)[C@H]3C[C@H](OCCCN)[C@]12C (stereo partly drawn) [CSA-11] | 84.2 | 92.9 | 100 | 97.3 | 98.4 |  |  |  |  |  |  |  |  |  | 
2 | CC(CCCO)C1CCC2C3C(NC(=O)CCCCCN)CC4CC(NC(=O)CCCCCN)CCC4(C)C3CC(NC(=O)CCCCCN)C12C (stereo not drawn) [CSA-31] |  |  |  |  |  | little or no detectable activity | 99.24 | 99.24 | 101.52 | 102.28 | 101.52 |  |  |  | 
3 | CCCOCCCC(C)C1CCC2C3C(OCCCN)CC4CC(OCCCN)CCC4(C)C3CC(OCCCN)C12C (stereo not drawn) [CSA-17] |  |  |  |  |  |  | 53.18 | 19.48 | 3.00 | 0.00 | 0.00 |  |  |  | 
4 | CC(CCCNC(=O)CCC(=O)c1ccc2cc(N(C)C)ccc2c1)C1CCC2C3C(OCCCN)CC4CC(OCCCN)CCC4(C)C3CC(OCCCN)C12C (stereo not drawn) [CSA-59] |  |  |  |  |  |  | 97.83 | 66.31 | 26.09 | 0.54 | 0.00 | preferentially incorporates into the vaccinia lipid envelope over the keratinocyte membrane with a high degree of selectivity |  |  | 
5 | CC(CCCO)C1CCC2C3C(OCCCN)CC4CC(OCCCN)CCC4(C)C3CC(OCCCN)C12C (stereo not drawn) [CSA-8] |  |  |  |  |  |  | 61.87 | 28.79 | 4.67 | 2.33 | 1.56 |  |  |  | 
6 | CC(CCCOCCCN)C1CCC2C3C(OCCCN)CC4CC(OCCCN)CCC4(C)C3CC(OCCCN)C12C (stereo not drawn) [CSA-25] |  |  |  |  |  |  | 97.40 | 74.35 | 66.91 | 39.41 | 10.04 |  |  |  | 
7 | CCCCCCCCN(CCCCCCCC)CCCC(C)C1CCC2C3C(OCCCN)CC4CC(OCCCN)CCC4(C)C3CC(OCCCN)C12C.Cl.Cl.Cl.Cl (stereo not drawn) [CSA-91] |  |  |  |  |  | most effective | 0.00 | 0.00 | 0.00 | 0.00 | 0.00 |  | 10.31 |  | 
8 | CC(CCCN)C1CCC2C3C(OCCCN)CC4CC(OCCCN)CCC4(C)C3CC(OCCCN)C12C (stereo not drawn) [CSA-15] |  |  |  |  |  |  | 98.88 | 93.68 | 101.49 | 97.40 | 65.80 |  |  |  | 
9 | CC(CCCNCCCNCCCN)C1CCC2C3C(OCCCN)CC4CC(OCCCN)CCC4(C)C3CC(OCCCN)C12C (stereo not drawn) [CSA-54] |  |  |  |  |  | little or no detectable activity | 103.91 | 101.12 | 95.53 | 101.12 | 95.53 |  |  |  | 
10 | CCCCCN(CCCCC)CCCC(C)C1CCC2C3C(OCCCN)CC4CC(OCCCN)CCC4(C)C3CC(OCCCN)C12C.Cl.Cl.Cl.Cl (stereo not drawn) [CSA-90] |  |  |  |  |  |  | 23.67 | 14.49 | 7.73 | 4.83 | 0.48 |  | 64.73 |  | 
11 | CCCCCCCCNCCC[C@@H](C)[C@H]1CC[C@H]2[C@@H]3CC[C@@H]4C[C@H](OCCCN)CC[C@]4(C)[C@H]3C[C@H](OCCCN)[C@]12C [CSA-46] |  |  |  |  |  |  | 41.89 | 3.77 | 0.38 | 0.00 | 0.00 |  |  | most effective | 
12 | CC(CCCOS(=O)(=O)O)C1CCC2C3C(OCCCN)CC4CC(OCCCN)CCC4(C)C3CC(OCCCN)C12C (stereo not drawn) [CSA-21] |  |  |  |  |  |  | 100.00 | 71.76 | 40.39 | 14.12 | 4.31 |  |  |  | 
13 | CCCCCCCCOCCCC(C)C1CCC2C3C(OCCCN)CC4CC(OCCCN)CCC4(C)C3CC(OCCCN)C12C (stereo not drawn) [CSA-7] |  |  |  |  |  |  | 0.56 | 0.00 | 0.00 | 0.00 | 0.00 |  |  | most effective | 5
14 | CCCCCCCCCCCCCCCCNCCCC(C)C1CCC2C3C(OCCCN)CC4CC(OCCCN)CCC4(C)C3CC(OCCCN)C12C.Cl.Cl.Cl.Cl (stereo not drawn) [CSA-92] |  |  |  |  |  | most effective | 0.00 | 0.00 | 0.00 | 0.00 | 0.00 |  | 0.00 |  | 
15 | CCCCCCCCNCCC[C@@H](C)[C@H]1CC[C@H]2[C@@H]3[C@H](OCCCN)C[C@@H]4C[C@H](OCCCN)CC[C@]4(C)[C@H]3C[C@H](OCCCN)[C@]12C [CSA-13] |  |  |  |  |  |  | 37.50 | 8.82 | 3.31 | 0.00 | 0.00 |  |  | most effective | 
